Tests used:
Test in all cases: Antimicrobial minimum inhibitory concentration (MIC), serial dilution
[1] = system: S. aureus (6538); format: cell-based, Staphylococcus aureus; settings: 24 hours; serial dilution 1.7 fold; 400 ppm max (ADBAC control 20 ppm max)
From the text: (§1) The antimicrobial properties of surfactants can be examined using known methods and standard protocols, and various types of microorganisms as treatment targets. As a general matter, standard protocols can be developed to assess antimicrobial minimum inhibitory concentration (MIC) using serial dilution method, giving concentration-dependent microorganism growth inhibition measurements against gram positive (e.g., Streptococcus mutans, which is anaerobic, and Staphylococcus aureus, which is usually aerobic but can grow also anaerobically), gram negative (e.g., Escherichia coli, which is anaerobic, or Pseudomonas aeruginosa, which is aerobic). Bacteria are propagated overnight in a suitable growth medium, e.g., a Tryptic Soy Broth. Prior to testing, the concentrations of the test organisms are established using a spectrophotometer that can measure optical density. Those bacterial samples are then diluted to about 1E3 to 1E4 CFU/mL. […] Test measurements are conducted on replicate 96-well plates, and reported as the rounded whole number average of the determined MIC. […] Measurement variability is then reported based on the determined average in the form of MIC+/−.

[2] = system: P. aeruginosa (9027); format: cell-based, Pseudomonas aeruginosa; settings: 24 hours; serial dilution 1.7 fold; 400 ppm max
From the text: as §1

[3] = system: S. mutans (25715); format: cell-based, Streptococcus mutans; settings: 24 hours; serial dilution 1.7 fold; 400 ppm max (ADBAC control 20 ppm max)
From the text: as §1

[4] = system: E. coli (8739); format: cell-based, Escherichia coli; settings: 24 hours; serial dilution 1.7 fold; 400 ppm max (ADBAC control 20 ppm max)
From the text: as §1

Structure (SMILES): CCCCCCCCCCCCCC[N+](C)(C)Cc1ccccc1.[Cl-] [ADBAC control]
- MIC Result [1]: 7 +/− 3 ppm
- MIC Result [2]: 48 +/− 20 ppm
- MIC Result [3]: 7 +/− 3 ppm
- MIC Result [4]: 16 +/− 7 ppm
